# In ChEMBL document CHEMBL1146188, “Gram-scale synthesis of pinusolide and evaluation of its antileukemic potential” (2006):
# Activity calls are given as the source filed them. No cut-off for these calls is given here.
# Columns and labels:
# BJAB [1] = experiment: Antiproliferative activity against human BJAB cells after 24 hrs; assay type: functional
# BJAB [2] = experiment: Antiproliferative activity against human BJAB cells after 48 hrs; assay type: functional
# BJAB [3] = experiment: Induction of apoptosis of human BJAB cells as measured by DNA fragmentation at 100 uM after 72 hrs; assay type: functional
# BJAB [4] = experiment: Loss of mitochondrial membrane potential in human BJAB cells at 100 uM; assay type: functional, cell-based
# BJAB [5] = experiment: Induction of mitochondrial permeability transition in human BJAB cells after 48 hrs; assay type: functional, cell-based
# Leukemia cell [6] = experiment: Induction of apoptosis in ALL cells at 100 uM after 60 hrs; assay type: functional, cell-based; conditions: Homo sapiens
# Leukemia cell [7] = experiment: Induction of apoptosis in AML cells at 100 uM after 60 hrs; assay type: functional, cell-based; conditions: Homo sapiens
smiles,measurement,setting,value
C=C1CC[C@@H]2[C@](C)(CCC[C@]2(C)C(=O)OC)[C@H]1CCC1=CCOC1=O [PINUSOLIDE],Activity,BJAB [1],44%
same,Activity,BJAB [2],86%
same,Activity,BJAB [3],70%
same,Activity,BJAB [4],Active
same,Activity,BJAB [5],Dose-dependent effect
same,Activity,Leukemia cell [6],Active
same,Activity,Leukemia cell [7],Active
